Laboratory results as given in publication PMC10407194 (Current Research in Insect Science, 2023).

Biological target: T1, TcTRPA1 (Tribolium castaneum, UniProt A0A139WJZ5)
T1 sequence (A0A139WJZ5 1-1242): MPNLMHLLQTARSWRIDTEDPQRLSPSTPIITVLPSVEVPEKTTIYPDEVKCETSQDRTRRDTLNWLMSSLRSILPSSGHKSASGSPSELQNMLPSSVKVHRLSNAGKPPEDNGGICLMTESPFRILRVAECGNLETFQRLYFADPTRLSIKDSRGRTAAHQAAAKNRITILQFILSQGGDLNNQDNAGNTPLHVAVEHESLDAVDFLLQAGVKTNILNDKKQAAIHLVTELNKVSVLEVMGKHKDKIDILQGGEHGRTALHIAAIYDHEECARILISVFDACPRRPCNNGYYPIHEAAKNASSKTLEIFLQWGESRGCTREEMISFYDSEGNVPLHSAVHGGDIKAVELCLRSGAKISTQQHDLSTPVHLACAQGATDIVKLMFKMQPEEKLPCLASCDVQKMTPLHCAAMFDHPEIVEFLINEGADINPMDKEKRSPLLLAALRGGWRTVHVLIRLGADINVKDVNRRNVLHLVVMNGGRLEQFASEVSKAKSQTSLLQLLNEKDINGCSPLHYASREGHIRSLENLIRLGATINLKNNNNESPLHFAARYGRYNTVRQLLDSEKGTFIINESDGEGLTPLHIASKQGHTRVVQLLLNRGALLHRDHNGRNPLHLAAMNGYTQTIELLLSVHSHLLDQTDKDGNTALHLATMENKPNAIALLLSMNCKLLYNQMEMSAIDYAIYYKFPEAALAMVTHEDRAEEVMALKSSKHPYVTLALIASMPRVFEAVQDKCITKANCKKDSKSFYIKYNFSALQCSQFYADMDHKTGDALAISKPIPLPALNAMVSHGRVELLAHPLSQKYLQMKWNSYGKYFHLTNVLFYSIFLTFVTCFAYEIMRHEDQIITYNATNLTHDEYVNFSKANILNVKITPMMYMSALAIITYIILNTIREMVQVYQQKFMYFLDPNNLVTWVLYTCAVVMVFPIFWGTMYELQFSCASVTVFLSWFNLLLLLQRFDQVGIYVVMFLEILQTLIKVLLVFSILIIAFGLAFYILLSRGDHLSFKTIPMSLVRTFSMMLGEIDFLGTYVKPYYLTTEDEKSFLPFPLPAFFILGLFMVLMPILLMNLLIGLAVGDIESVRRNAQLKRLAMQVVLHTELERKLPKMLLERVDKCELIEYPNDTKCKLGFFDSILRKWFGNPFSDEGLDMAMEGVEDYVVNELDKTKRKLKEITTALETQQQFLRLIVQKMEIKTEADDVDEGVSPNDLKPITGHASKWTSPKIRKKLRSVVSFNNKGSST
Test: Ca2+ influx fluorescence assay
Assay type: cell-based

- EC50: 69.7 µM
Compound: CC(C)=CCCC(C)CC=O (stereo not shown) [citronellal]
